# “Also recorded” adds a separate entry of the source. Like-named read-outs stand apart in the source and are kept apart here.
# Tests used:
# SLE patients [1] = experiment: SF-36 health-related quality of life, Phase III (90-09) trial of LJP 394 vs placebo; assay type: in vivo, human; details: for Longitudinal differences in HRQOL (SF-36 domain scores) drug-treated vs placebo-treated: various time points, all patients
# Protocol: Patients were treated with weekly doses of 100 mg of LJP 394 or with placebo. Patients were also permitted to receive certain other treatments including some but not all immunosuppressive drugs using a definition similar to Example 2. This randomized, double-blind, placebo-controlled study was conducted at more than 70 major medical centers in North America and Europe. Patients could remain in the study for up to 92 weeks.
# The prospectively defined analysis groups were the intent-to-treat population and patients with impaired renal function. The intent-to-treat population was defined as patients with high-affinity antibodies to LJP 394. The patients with high-affinity antibodies to LJP 394 were those with a Kd′<0.8 mg/ml. Patients with impaired renal function were defined as having a serum creatinine level of 1.5 mg/dL to 3.5 mg/dL at baseline. In general, patients with impaired renal function are at greater risk of progressing to renal flare, kidney failure, and dialysis.
# Complement changes were evaluated by determining the mean change from baseline in the complement protein C3 that indicates overall complement consumption due to active inflammation. Antibody changes were evaluated by determining the mean percent change of antibodies to dsDNA from baseline. Patients' assessments of disease activity and health-related quality of life were measured on a regular basis as well as at the time of, and 30 days following, a documented renal flare.
# Two studies (Phase II/III or 90-05, and Phase III or 90-09) were conducted as described in Examples 1-2 and 12. […] Patients completed the SF-36® assessment at entry, followed by three additional time points in the trial depending on how long they participated. […] The Phase II/III trial enrolled 198 lupus patients with high-affinity antibodies who were treated for up to 18 months.
# As described above in the detailed description of the invention, HRQOL is an assessment of a patient's sense of physical and mental well-being or how they feel. In the Phase II/III and Phase III studies, HRQOL was measured by a standard scoring instrument called the Medical Outcomes Study 36-Item Short Form (SF-36′). The SF-36® Health Survey is a standardized tool used in clinical research to measure a patient's assessment of quality of life outcomes related to disease and disease treatment. The Survey asked 36 questions related to how well a patient can perform day-to-day activities and how they feel emotionally. The answers were then reported as scores in eight domains. These domains are physical functioning, role-physical, bodily pain, general health, vitality, social functioning, role-emotional and mental health. SF-36@ was measured in both Phase III and II/III.
# SLE patients [2] = experiment: Documented renal flares, Phase III study; assay type: in vivo, human
# Protocol: The primary endpoint was time to renal flare. A renal flare was defined as a significant, reproducible increase in serum creatinine, urine protein or blood in the urine as described in Example 2. The secondary endpoint was time to treatment with HDCC. HDCC was defined as any dose of cyclophosphamide or an increase in prednisone of 15 mg/day or higher resulting in a final dose greater than 20 mg/day.
# (§1) The incidences of renal flares in patients of both sustained reduction group and the other group were documented and the results are shown in Table 7 for Phase III and Table 8 for Phase II/III.
# anti-dsDNA = details: murine models of SLE; cited from earlier work
# SLE patients [3] = experiment: Documented renal flares, Phase II/III study; assay type: in vivo, human
# Protocol: The primary endpoint was the time to a documented renal flare, defined as reproducible increases from baseline in 24-hr proteinuria or serum creatinine >20% or at least 0.3 mg/dL, whichever was greater, accompanied by proteinuria, hematuria and/or red cell casts; or new onset or reproducible increase in hematuria accompanied by either an increase in 24-hr proteinuria or new red cell casts. Secondary outcome measures included the number of renal flares, time to institution of therapy with high dose corticosteroids (HDCC) and/or cyclophosphamide, incidence of treatment with HDCC and/or cyclophosphamide, and number of major SLE flares. HDCC was defined as an increase in oral, intravenous or intramuscular prednisone (or prednisone equivalent) greater than or equal to 15 mg per day from baseline to a dose greater than 20 mg per day for more than two days or any dose exceeding 200 mg in a single day. Topical, intra-articular, intra-lesional, or intra-ocular corticosteroid administration was excluded.
# as §1
# B cells [4] = details: mice; cited from earlier work
# B cells [5] = details: rats; cited from earlier work
substance,measurement,setting,value
"abetimus sodium (sense GTGTGTGTGTGTGTGTGTGT; antisense CACACACACACACACACACA; sense: DNA, backbone not given here; antisense: DNA, backbone and methylation of C not given here; four deoxynucleotide duplexes bound to triethylene glycol valency platform) [LJP 394, tetravalent conjugate: four (CA)10.(TG)10 double-stranded 20-mer oligonucleotides on a triethylene glycol based valency platform]",Mean SF-36 domain scores after renal flare compared with placebo,SLE patients [1]; after renal flare,remained better than placebo patients; also recorded: remained better than placebo patients'
same,Mean SF-36 domain scores before renal flare compared with placebo,SLE patients [1]; before renal flare,improved HRQOL scores before the renal flare compared with placebo; also recorded: higher for LJP394 treated patients in all domains
same,SF-36 domain score changes pre/post renal flare compared with placebo,SLE patients [1]; pre vs post renal flare,seven of eight domains; also recorded: better HRQOL compared with Placebo patients in all domains except physical functioning
same,Longitudinal differences in HRQOL (SF-36 domain scores) drug-treated vs placebo-treated,SLE patients [1],not significantly different
same,Longitudinal differences in HRQOL (SF-36 domain scores) drug-treated vs placebo-treated,SLE patients [1]; listed as Riquent™,No substantive differences
same,# Renal flares in Other patients,SLE patients [2],14
same,# Renal flares in patients with sustained reduction,SLE patients [2],3
same,Effect on anti-dsDNA titers,anti-dsDNA,selectively reduces anti-dsDNA titers
same,# Renal flares in Other patients,SLE patients [3]; Phase II/III,6
same,# Renal flares in patients with sustained reduction,SLE patients [3]; Phase II/III,1
same,Time to and number of renal flares compared with placebo,SLE patients [3]; high affinity population,significant reduction
same,Time to renal flare between treatment groups,"SLE patients [3]; intent-to-treat population, interim analysis",unlikely to reach statistical significance
same,Induction of antigen-specific B-cell tolerance,B cells [4],induce antigen-specific B-cell tolerance
same,Induction of antigen-specific B-cell tolerance,B cells [5],induce antigen-specific B-cell tolerance
